Experimental data from patent publication US20260234295A1, “ULTRALOW MOLECULAR WEIGHT HEPARIN” (The University of North Carolina at Chapel Hill, priority 2022, published 2026).
Several values for one entry are separate records, joined by “and”; a condition that tells them apart may be missing. Equal entries are not always repeated.

Legend:
[1] = system: T1, Human FXa (Homo sapiens); assay: Anti-FXa activity, chromogenic substrate S-2765 with antithrombin; type: biochemical; details: for anti-FXa activity after incubation with heparanase: after heparanase digestion, digested byproduct; for IC50: human FXa, antithrombin, S-2765, read-out: anti-FXa activity, calculated IC50 (converted)
T1 construct: Human FXa (Enzyme Research Laboratories, South Bend, Indiana, United States of America); purchased Enzyme Research Laboratories
Method: Human FXa (Enzyme Research Laboratories, South Bend, Indiana, United States of America) was diluted in phosphate buffered saline (PBS) to 50 U/mL. Antithrombin was diluted to 0.03 mg/mL in PBS with 1 mg/mL of bovine serum albumin (BSA). The chromogenic substrate, S-2765 (Diapharma, Westchester, Ohio, United States of America) was diluted to 1 mg/mL in water. Heparin oligosaccharides were dissolved in PBS at various concentrations (7 to 3600 ng/mL). A reaction mixture including 60 μL of antithrombin and 24 μL of a solution containing a heparin oligosaccharide was incubated at room temperature for 3 min. FXa (100 μL) was then added, which was followed after a 2 min incubation at room temperature by the addition of 30 μL of chromogenic substrate, S-2765. The absorbance of the mixture was measured at 405 nm for 5 min and plotted against reaction time. The initial reaction rate as a function of oligosaccharide concentration was used to calculate IC50.

[2] = system: tail vein bleeding; assay: Tail vein transection bleeding time; type: in vivo, C57BL/6 mice
Method: The effect of test drug on bleeding time was assessed in a murine tail vein transection model (46). Sterile saline (n=5), HR 7-mer (12 μg/g, n=5) or enoxaparin (4 μg/g, n=7) was administered subcutaneously. Mice were anesthetized with ketamine and xylazine by intraperitoneal injection and placed on a warming mat at 37° C. Either 1 hour or 4 hours after administration of HR 7-mer or enoxaparin, respectively, the lateral tail vein was transected with a number 11 scalpel blade at a tail width of 2.3 mm and immediately submerged in PBS at 37° C. The bleeding time was determined at that instant when bleeding had ceased for 30 seconds. Animals were excluded if arterial bleeding was present.

[3] = target: T2, bovine FXa; assay: ACTICHROME heparin activity assay, FXa inhibition with human antithrombin; type: biochemical; details: ACTICHROME kit, read-out: FXa activity, calculated 50% inhibitory concentration (IC50) (converted)
T2 construct: purchased BioMedica Diagnostics
Method: Data shown as mean standard deviation. Briefly, varying concentrations of HR 7-mer, enoxaparin, and fondaparinux were prepared in phosphate-buffered saline (PBS). A total of 5 microliters (μL) of each sample was added to each well, followed by the addition of 40 μL of human antithrombin for 2 minutes (min) at 37 degrees Celsius (° C.). A total of 40 μL of bovine FXa stock solution was then added and incubated for 1 min at 37° C., followed by the addition of 40 μL of chromogenic substrate sold under the tradename SPECTROZYME® FXa (BioMedica Diagnostics, Windsor, Canada). After a 5 min incubation period at 37° C., the reaction was terminated by the addition of 40 μL of glacial acetic acid. Absorbance was measured at 405 nanometers (nm) and results presented as percent inhibition of FXa activity.

[4] = system: non-occlusive venous thrombosis; assay: Murine model of non-occlusive venous thrombosis (electrolytic injury of the inferior vena cava); type: in vivo, C57BL/6 mice
Method: Heparin-based drug efficacy was evaluated in a preclinical mouse model of non-occlusive venous thrombosis (46). HR 7-mer was administered subcutaneously (12 μg/g, n=5) to male C57BL/6 mice (8-12 weeks of age) 1 hour prior to electrolytic injury and 24 hours after injury. Enoxaparin was administered subcutaneously (4 μg/g, n=5) 4 hours prior and 24 hours after electrolytic injury as a clinically relevant reference and an additional control group enrolled with saline vehicle administered subcutaneously (n=6). […] Venous side branches were ligated or cauterized, while posterior branches were left patent. A 25-gauge stainless steel needle, attached to a silver-coated copper wire was inserted into the exposed caudal vena cava and positioned against the anterior wall (anode). A second wire was implanted subcutaneously to complete the circuit (cathode) and a 250 μAmps current applied for 15 min. Subsequently, the needle was removed and a cotton swab held in gentle contact with the puncture site to prevent bleeding. The vena cava and associated thrombus, immediately below the renal veins to just above the bifurcation, was excised 48 hours after injury for determination of wet thrombus weight.

[5] = target: T3, Recombinant heparanase (Homo sapiens, UniProt Q9Y251); assay: Incubation of heparin oligosaccharides with recombinant heparanase, HPLC and LC-MS analysis; type: in vitro ADME; details: overnight incubation with heparanase, 37° C., pH 6.0
T3 construct: made in house; host or cells: insect cells (baculovirus expression system)
T3 sequence (Q9Y251 158-543 limits assumed): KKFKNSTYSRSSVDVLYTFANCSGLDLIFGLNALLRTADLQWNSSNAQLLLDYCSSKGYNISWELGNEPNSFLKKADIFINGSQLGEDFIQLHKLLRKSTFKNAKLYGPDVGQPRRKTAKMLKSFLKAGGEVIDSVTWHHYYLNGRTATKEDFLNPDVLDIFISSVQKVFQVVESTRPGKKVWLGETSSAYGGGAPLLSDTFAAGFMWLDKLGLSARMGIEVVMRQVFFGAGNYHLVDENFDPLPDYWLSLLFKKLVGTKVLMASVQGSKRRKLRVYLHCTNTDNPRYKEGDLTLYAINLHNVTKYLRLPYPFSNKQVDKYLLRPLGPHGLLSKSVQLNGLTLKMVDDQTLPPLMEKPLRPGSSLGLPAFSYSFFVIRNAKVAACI
T3 sequence (Q9Y251 36-109 limits assumed): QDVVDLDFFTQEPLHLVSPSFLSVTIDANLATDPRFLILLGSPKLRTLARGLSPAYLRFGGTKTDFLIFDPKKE
Method: Recombinant heparanase was expressed in insect cells using the baculovirus expression system and purified by a heparin-Sepharose column, as previously described (40). Heparin oligosaccharides, HS 6-mer (20 μg) or HR 7-mer (20 μg), were incubated overnight at 37° C. in 250 μL of MES (50 mM, pH 6.0) in the presence of heparanase (2 μg for 1× heparanase digestion, or 20 μg for 10× heparanase digestion).
High performance liquid chromatography (HPLC) analysis was conducted with a strong anion exchange column (Propac™ PA1 column, 10 μm, 9 mm×250 mm, Thermo Fisher, Waltham, MA) using a Shimadzu Prominence UFLC20A system (Shimadzu Corporation, Columbia, MD) with a UV detector set at 310 nm. A linear gradient was used for analytical purposes and included a solvent A: 20 mM NaAcO (pH 5.0); and solvent B: 2 M NaCl with 20 mM NaAcO (pH 5.0): 0-3 min: 0-80% B, 3.1-23 min: 80-100% B at a flow rate of 2 mL/min. A total of 5-10 μg of oligosaccharides was injected per run.
LC-MS/MS analysis of heparanse digested oligosaccharides was implemented on a Vanquish Flex UHPLC system (Thermo Fisher, Waltham, MA) coupled with a TSQ Fortis triple-quadrupole mass spectrometer. The ACQUITY Glycan BEH Amide column ([…], 2.1×150 mm; Waters) was used at 60° C. The mobile phase A was 50 mM ammonium formate in water (pH 4.4) and mobile phase B was acetonitrile. […]

T1 sequence (P01008 33-464): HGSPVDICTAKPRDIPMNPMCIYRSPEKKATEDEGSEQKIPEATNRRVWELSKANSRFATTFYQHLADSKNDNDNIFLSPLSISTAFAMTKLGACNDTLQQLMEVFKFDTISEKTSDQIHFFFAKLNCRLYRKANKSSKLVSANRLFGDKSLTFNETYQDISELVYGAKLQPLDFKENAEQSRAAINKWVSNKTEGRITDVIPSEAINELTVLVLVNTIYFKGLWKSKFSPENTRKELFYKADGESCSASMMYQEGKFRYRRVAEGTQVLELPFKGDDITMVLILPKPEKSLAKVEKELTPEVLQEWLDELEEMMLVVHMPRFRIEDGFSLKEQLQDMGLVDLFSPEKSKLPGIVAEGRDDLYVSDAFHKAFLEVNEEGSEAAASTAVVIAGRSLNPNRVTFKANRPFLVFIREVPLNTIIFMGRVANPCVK
T2 sequence (P01008 33-464): as above

Structure (SMILES) | anti-FXa activity after incubation with heparanase [1] | IC50 [1] | bleeding time ([2]; enoxaparin 4 μg/g SC, 4 hours, HR 7-mer 12 μg/g SC, 1 hour, saline vehicle 81±3 sec) [s] | Avg. bleeding time ([2]; enoxaparin 4 μg/g, 4 hr pre, SC, HR 7-mer 12 μg/g, 1 hr pre) [s] | IC50 [3] [nM] | reduction in thrombus formation as compared to saline vehicle ([4]; 48 hours after injury, HR 7-mer 12 μg/g SC 1 hour prior and 24 hours after, enoxaparin 4 μg/g SC 4 hours prior and 24 hours after) [%] | Avg. IVC weight ([4]; wet thrombus weight 48 hours after injury, enoxaparin 4 μg/g, 4 hr pre, SC, HR 7-mer 12 μg/g, 1 hr pre, SC) [mg] | susceptibility to heparanase mediated degradation (HPLC, LC-MS) [5]
O=C(O)C1OC(Oc2ccc([N+](=O)[O-])cc2)C(O)C(O)C1OC1OC(COS(=O)(=O)O)C(OC2OC(C(=O)O)C(OC3OC(COS(=O)(=O)O)C(OC4OC(C(=O)O)C(OC5OC(COS(=O)(=O)O)C(O)C(O)C5NS(=O)(=O)O)C(O)C4OS(=O)(=O)O)C(OS(=O)(=O)O)C3NS(=O)(=O)O)C(O)C2OS(=O)(=O)O)C(O)C1NS(=O)(=O)O (stereo not drawn) [Compound 6-mer-D] | preservation of anti-FXa activity | 193 nM |  |  |  |  |  | 
O=C(O)C1OC(OC2C(COS(=O)(=O)O)OC(OC3C(C(=O)O)OC(OC4C(COS(=O)(=O)O)OC(OC5C(C(=O)O)OC(OC6C(COS(=O)(=O)O)OC(OC7C(C(=O)O)OC(Oc8ccc([N+](=O)[O-])cc8)C(O)C7O)C(NS(=O)(=O)O)C6O)C(OS(=O)(=O)O)C5O)C(NS(=O)(=O)O)C4OS(=O)(=O)O)C(OS(=O)(=O)O)C3O)C(NS(=O)(=O)O)C2O)C(O)C(O)C1O (stereo not drawn) [HR 7-mer] |  | 95.7 nM and 96 nM | 143 ± 18 | 143 ± 18 | 3870 | 40.3±3.9 | 18.8 ± 1.2 | loss of GlcA
O=C(O)C1OC(OC2C(COS(=O)(=O)O)OC(OC3C(C(=O)O)OC(OC4C(COS(=O)(=O)O)OC(OC5C(C(=O)O)OC(Oc6ccc([N+](=O)[O-])cc6)C(O)C5O)C(NS(=O)(=O)O)C4O)C(OS(=O)(=O)O)C3O)C(NS(=O)(=O)O)C2OS(=O)(=O)O)C(O)C(O)C1OC1OC(COS(=O)(=O)O)C(O)C(O)C1NS(=O)(=O)O (stereo not drawn) [HS 6-mer, reference compound] | completely lost | 21.2 nM and 21 nM |  |  |  |  |  | cleavage of the -[GlcA-GlcNS3S6S]- disaccharide to afford a tetrasaccharide (4-mer-D)
